Data set [1] relates to GABAA sPSCs in Medium Spiny Neurons (MSNs) of the striatum in Pink 1 knockout mice. The conditions noted are these: Dehorter et al 2012; cited from earlier work.
For data set [2] the test system is unchanged. Kind of data set: Whole-cell voltage-clamp recordings of spontaneous GABAA currents in basal ganglia slices before and during bath application of bumetanide. The conditions noted are these: for effect on the giant GABAergic pattern (in words): 10 μM; for area gigantic pattern (% of the total area) / giant GABAA sPSCs share of total current charge, Mean: before bumetanide 38±5%; for Giants Amplitude, Mean: P=0.01 vs before bumetanide. The format is cell-based, mouse. On the procedure: Pink 1 knockout (Pink1 −/−) mouse is a genetic model of Parkinson's disease.
Pink1 −/− mutant mice of either sex at age 5-7 months were intracardially perfused with the choline solution (see below) at 4° C. and sacrificed by decapitation under halothane anesthesia. Oblique parasagittal slices (380 μm thick) were cut with an angle of 10±2° to obtain the basal ganglia slice (BGS) as described in (Beurrier et al., 2006). For the slicing procedure, the ice-cold oxygenated solution contained (in mM) 110 choline, 2.5 KCl, 1.25 NaH2PO4, 7 MgCl2, 0.5 CaCl2, 25 NaHCO3, 7 glucose. During the recovery period, BGS were placed at room temperature with standard artificial cerebrospinal fluid (ACSF) saturated with 95% O2 5% CO2 and containing (in mM): 126 NaCl, 3.5 KCl, 1.2 NaH2PO4, 1.3 MgCl2, 2 CaCl2, 25 NaHCO3, 11 glucose.
All recordings were made at 32° C. Cells were visualized with infrared-differential interference optics (Axioskop2, Zeiss). For whole-cell voltage-clamp recordings of postsynaptic GABAA currents, the pipette (6-10 MΩ) contained (in mM): 128.5 K-gluconate, 11.5 KCl, 1 CaCl2, 10 EGTA, 10 HEPES, 2.5 MgATP and 0.3 NaGTP, pH 7.32, 280 mOsm. The KGlu pipette solutions gave a reversal potential for chloride close to −63 mV at 35° C. Biocytin (Sigma, 5 mg/ml) was added to the pipette solution and osmolarity corrected when necessary. We performed patch-clamp recordings in whole cell configuration using the Digidata 1344A interface, the Multiclamp 700A amplifier and PClamp8 software (Axon Instruments, Foster City, Calif.). We identified medium spiny neurons (MSNs) during recordings based on their typical rectification during hyperpolarizing steps and their firing delay in response to depolarizing steps. MSNs were also identified by their morphological characteristics after the recording session (see immunocytochemistry). We measured spontaneous GABAA currents (GABAA sPSCs) from MSNs in voltage clamp mode at the reversal potential for glutamatergic (+10 mV) events (Cossart et al., 2000). These currents were stored on Pclamp8 (Axon Instruments, Foster City, Calif., USA) and analyzed off-line with Mini Analysis program (Synaptosoft 6.0, CA, USA), Clampfit 9.2, Origin 5.0 and Autosignal 1.7 to determine the frequency and amplitude of GABAA sPSCs. All detected currents were then visually inspected to reject artefactual events.
We defined as a burst a minimum of five sPSCs associated with a baseline elevation. More than five giant events and three bursts were required during the three min analysis for the pattern to be deemed “oscillatory”. The current charge was automatically calculated by the Mini Analysis Software as the area under the curve value (taking the onset, peak and decay time points as references for each event).
GABAA sPSCs were recorded from identified MSNs before and during bath application of Bumetanide.
For statistical comparison of data we performed paired t-tests. Error bars indicate SEM. ***P<0.001; ns (non-significant).

Data set [3] concerns patient suffering from Parkinson's disease. The conditions noted are these: for UPDRS motor severity score (III) in the OFF stage: after 2 months of bumetanide, last four weeks at 5 mg/d; for UPDRS II OFF (activities of daily leaving, worst condition) score: at the end of the study. From the text:
A person, suffering from a 10-year history of Parkinson's disease was included in an open-labeled trial assessing the antiparkinsonian effects of bumetanide. They gave their informed consent to participate. The patient fulfilled the modified Queen's Square Brain Bank criteria of Parkinson's disease (Berardelli et al., 2013). […] Parkinson's disease was at the stage of motor fluctuation and dyskinesia. The OFF periods (bad mobility) lasted for an average of 25-50% of the awakened time. Dyskinesia was mild and intermittent. There was no marked balance impairment or cognitive decline. Antiparkinsonian treatment consisted in: L-DOPA 1,200 mg/d (7 intakes/d), ropinirole 4 mg/d, rasagiline 1 mg/d, tolcapone 300 mg/d. They also received mianserine, citalopram and alprazolam for concomitant anxiety and depression. Bumetanide was progressively titrated up to 3 mg/d (once daily) received for a month. […] The patient was assessed before, 1 month and 2 months after the initiation of bumetanide. At each visit, the patient was asked about any side effects having occurred since the last visit. […] The antiparkinsonian treatment was unchanged during the study. A person, having a 8-year history of Parkinson's disease was included in an open-labeled trial assessing the antiparkinsonian effects of bumetanide. The OFF periods (bad mobility) lasted for an average of 25-50% of the awakened time. Antiparkinsonian treatment consisted in: L-DOPA 625 mg/day (5 intakes/day), entacapone 1,000 mg/day, ropinirole 12 mg/day. Bumetanide: was progressively titrated up to 3 mg/day (once daily) received for a month. […] The patients were assessed before, 1 month and 2 months after the initiation of bumetanide. At each visit, the patient was asked about any side effects having occurred since the last visit. […] The antiparkinsonian treatment was unchanged during the study.

Setting [4] is: bumetanide 10 μM, 15-30 min, Pink1 KO MSNs.
Where [5] appears, read: bumetanide 10 μM, 15-30 min, Pink1 KO MSNs, listed as Bume.
[6] abbreviates: bumetanide 10 μM, 15-30 min, n=42 events.
[7] abbreviates: bumetanide 10 μM, 15-30 min, three min analysis.

Molecules are shown by their SMILES. Like-named read-outs stand apart in the source and are kept apart here.

Consider `N[C@@H](Cc1ccc(O)c(O)c1)C(=O)O` [L Dopa], for which the “effect on the gigantic current pattern (in words)” value in data set [1] was “alleviate this pattern”.

Take `CCCCNc1cc(C(=O)O)cc(S(N)(=O)=O)c1Oc1ccccc1` [Bumetanide, bumetanide]: the “effect on the giant GABAergic pattern (in words)” value in data set [2] (15-30 min, Pink1 KO MSNs) is given as “blocked the giant pattern”; in data set [2] (15-30 min, Pink1 KO MSNs, listed as bumetanide), “block these gigantic currents completely”. Also, the “time of treatment after which the effect was stable” value in data set [2] (bath application, final concentration 10 μM) is on record as 15 min. Also, the “TOTAL AREA, Mean” value in data set [2] (bumetanide 10 μM bath, 15-30 min, Pink1 KO MSNs with giant pattern, VH=+10 mV) amounted to 290 pA · ms. Also, the “Pink1 KO MSNs showing giant GABAA PSCs in which the block was observed” value in data set [2] (bumetanide 10 μM, 15-30 min) was 10/10. The “effect on bursts of GABAA sPSCs (in words)” value in data set [2] (bumetanide 10 μM, 15-30 min) is given as “totally disappeared”. For the same compound, the “mean frequency of single giant GABAA sPSCs” value in data set [2] (bumetanide 10 μM, 15-30 min, P=0.02 vs before bumetanide) is 0.10±0.05 Hz. Further, the “Tonic pattern: Amplitude of GABAA PSCs, Mean” value was found to be 36±4 pA in data set [2] (setting [4]) and 36.0 pA in data set [2] (setting [5]). In addition, the results for the “Tonic pattern: Frequency of GABAA PSCs, Mean” value in data set [2] (setting [4]) and in data set [2] (setting [5]) were 2.9±0.5 Hz and 2.9 Hz, respectively. The “mean total current charge” value in data set [2] (bumetanide 10 μM, 15-30 min, Pink1 KO MSNs, before bumetanide 566±74) was determined as 290±70 nA·ms. Besides, in data set [2] (bumetanide 10 μM, 15-30 min, before 62±5%, P=0.0003), the “basal events between giants, share of the total current charge” value came out at 90±3%. The “area gigantic pattern (% of the total area) / giant GABAA sPSCs share of total current charge, Mean” value in data set [2] (bumetanide 10 μM, 15-30 min, P=0.0003) worked out at 11.7±3.9%; in data set [2] (bumetanide 10 μM, 15-30 min, P=0.0003, listed as Bume) it was 11.7%. Also, the “range of amplitude of single giant GABAA sPSCs” value in data set [2] (setting [6]) is reported as 203-593 pA. The “Giants Amplitude, Mean” value came out at 338.2±22.5 pA in data set [2] (setting [6]) and 338.2 pA in data set [2] (bumetanide 10 μM, 15-30 min, n=42 events, listed as Bume). In data set [2] (bumetanide 10 μM, 15-30 min, table value, unit not given), the “Giants Frequency, Mean” value was 0.10. Also, the “n bursts, Mean” value in data set [2] (setting [7]) turned out to be 0.2. The “n giants (>200 pA), Mean” value in data set [2] (setting [7]) was found to be 5.6. Also, the “decrease of the mean total current charge” value in data set [2] (bumetanide 10 μM, 15-30 min vs before bumetanide, P=0.0002) was 49%. Also, in data set [2] (bumetanide 10 μM, versus 237 before bumetanide), the “number of individual giant GABAA sPSCs still present during the three-minutes sequence analyzed” value was 42 events. In addition, the dyskinesia entry in data set [3] (human, in vivo) is “no worsening”. Further, the “overall improvement evaluated by the patient and the caregiver” value in data set [3] (patient 1) is reported as “about 30%”. The “improvement (decrease) of UPDRS motor (III) score in the OFF stage” value in data set [3] (patient 1, 2 months vs before treatment) came to 34%. For the same compound, the “UPDRS motor severity score (III) in the OFF stage” value in data set [3] (patient 1, 44 before treatment) is reported as 29; in data set [3] (patient 2, 25 before treatment), 11. Besides, the “motor condition / Parkinsonism as noticed by the patient and their caregiver” value in data set [3] (patient 1, after 2 weeks at 5 mg/d) was “marked improvement”. Also, the OFF time duration entry in data set [3] (patient 1, after 2 weeks at 5 mg/d, baseline 25-50%) is reported as “less than 25 % of the awakened time”. Moreover, the “UPDRS II OFF (activities of daily leaving, worst condition) score” value in data set [3] (patient 1, 30 at baseline) was determined as 18; in data set [3] (patient 2, 15 at baseline) it was 10. For the same compound, the “improvement (decrease) of UPDRS II in the worst condition” value in data set [3] (patient 1, end of study vs baseline) was 40%. Besides, the “UPDRS II in the best condition” value is “unchanged” in data set [3] (patient 1, score 0) and “unchanged” in data set [3] (patient 2, 2 vs 3). In addition, the “improvement of UPDRS motor severity score (III) in the OFF stage” value in data set [3] (patient 2, 2 months vs before treatment) was 56%. Moreover, in data set [3] (patient 2, end of study vs baseline), the “improvement of UPDRS II in the worst condition” value came to 33%.
